SMILES strings stand for the structures.

In assay [1] the target is Human BLT1. The note with it: high affinity receptor; ref. [12]; cited from earlier work.
Assay [2] deals with Human BLT2. The note with it: cited from earlier work.
The test system of assay [3] is K/BxN serum-transfer arthritis in C57BL/6 mice. The assay is described as follows: K/BxN serum transfer arthritis model, prophylactic (Example 1). It counts as in vivo, mouse (C57BL/6). The note with it: 50 mg/kg orally once daily, day 0 to day 14. An excerpt:
The K/BxN serum-transfer arthritis model was used to test whether development of arthritis could be prevented by Coversin. This model is a well-known murine model in which the immunological mechanisms occurring in rheumatoid arthritis (RA) are induced by transferring serum from arthritic transgenic K/BxN mice to naive mice. In the absence of treatment arthritic symptoms occur a few days later. This model is recognised to be highly relevant for RA, especially for the preclinical screening of new therapeutic targets for RA and perhaps other forms of inflammatory arthritis.
(§1) Experimental RA was induced using the protocol described by. Five mice were tested in each treatment group.
On day 0 C57BL/6 mice were assessed for clinical score and paw thickness using standard protocols. All mice received an injection of K/BxN serum on day 0 and on day 2. Each treatment was administered every day from day 0 to day 14. On days where serum was also injected (day 0 and day 2) drug was administered immediately after the serum injection. Clinical score and paw thickness were measured every other day.
Treatment groups were as follows: • Group 1: PBS (vehicle, subcutaneous, q24h) • Group 2: Treatment (Coversin 5 mg/kg subcutaneous, q12h) • Group 3: Treatment (Zileuton 50 mg/kg orally once daily) • Group 4: Treatment (PAS-Coversin 20 mg/kg subcutaneous, once daily)

Assay [4] has the same test system. In words: K/BxN serum transfer arthritis model, treatment of established disease (Example 2). Format: in vivo, mouse (C57BL/6). The note with it: 50 mg/kg orally once daily, day 4 to day 14. The procedure:
The K/BxN serum-transfer arthritis (STA) model was used to test whether established arthritic disease could be ameliorated by Coversin.
as §1
On day 0 C57BL/6 mice were assessed for clinical score and paw thickness using standard protocols. All mice received an injection of K/BxN serum on day 0 and on day 2. The treatment was administered every day from day 4 to day 14. On days where serum was also injected (day 0 and day 2) drug was administered immediately after the serum injection. Clinical score and paw thickness were measured every other day.
Treatment groups were as follows: • Group 1: PBS (vehicle) • Group 2: Treatment (PAS-L Coversin 20 mg/kg subcutaneous once daily) • Group 3: Treatment (Zileuton 50 mg/kg orally once daily) • Group 4: Treatment (PAS-Coversin 20 mg/kg subcutaneous once daily)

Regarding `CCCCC/C=C\C[C@@H](O)/C=C/C=C/C=C\[C@@H](O)CCCC(=O)O` [LTB4, Leukotriene B4], the Kd was 0.39 to 1.5 nM in assay [1] and 23 nM in assay [2] (human BLT2). For the same molecule, the “lower affinity for LTB4 than BLT1” value in assay [2] (BLT2 compared with BLT1) is 20 fold.
For `CC(c1cc2ccccc2s1)N(O)C(N)=O` (centres unmarked) [Zileuton, N-[1-(1-benzothien-2-yl)ethyl]-N-hydroxyurea], in assay [3], the development of arthritis result is recorded as “partially ameliorates the development of arthritis”. In assay [4], the “day of maximum clinical score” value turned out to be 6 days.

Source of the values: patent US20250195612A1, “Coversin for use in the treatment of rheumatic diseases” (Volution Immuno Pharmaceuticals SA, priority 2018, published 2025).
